One assay has as its target T1, Kynureninase (Pseudomonas fluorescens, UniProt P83788).
T1 construct: Bacterial kynureninase was prepared from cells of Pseudomonas fluorescens; endogenous in cells; partially purified by DEAE-cellulose and ammonium sulfate
T1 sequence (P83788 1-416): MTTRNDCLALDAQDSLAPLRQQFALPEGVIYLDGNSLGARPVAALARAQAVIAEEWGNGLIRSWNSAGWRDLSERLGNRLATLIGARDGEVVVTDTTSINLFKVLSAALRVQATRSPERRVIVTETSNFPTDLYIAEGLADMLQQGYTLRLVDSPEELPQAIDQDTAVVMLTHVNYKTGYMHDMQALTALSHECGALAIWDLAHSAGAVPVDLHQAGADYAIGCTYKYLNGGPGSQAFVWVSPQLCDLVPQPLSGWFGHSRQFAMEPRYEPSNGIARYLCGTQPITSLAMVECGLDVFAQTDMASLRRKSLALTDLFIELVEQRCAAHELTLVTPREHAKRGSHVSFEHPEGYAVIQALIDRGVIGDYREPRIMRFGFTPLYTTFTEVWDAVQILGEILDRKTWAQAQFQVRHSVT
As to the kind of experiment: Competitive inhibition of kynureninase by S-aryl cysteines and S-aryl cysteine sulfones. Format: biochemical. The note with it: for Ki: Table 1; for inhibition (in words): bacterial kynureninase; for fold decrease in Ki value: relative to unsubstituted S-phenyl-L-cysteine. The method, then:
Bacterial kynureninase was prepared from cells of Pseudomonas fluorescens (ATCC 11250, for example) essentially as described by .Hayaishi and Stanier (1952) J. Biol. Chem. 195:735-740. Cells were grown on a minimal medium containing 0.1% L-tryptophan as the sole carbon and nitrogen source.
From 100 1 of medium, grown for 18 h at 30° C. 230 g of wet cell paste was obtained. The cells were suspended in 1 of 0.01M potassiumphosphate, pH 7.0, and disrupted by 2 passages through a Manton-Gaulin homogenizer. After centrifugation of the cell extract for 1 h at 10000 g, the enzyme was partially purified by ion-exchange chromatography on DEAE-cellulose and ammonium sulfate precipitation.
Kynureninase activity was measured at 25° C. by following the decrease in absorbance at 360 nm (ε=-4500M^-1 cm^-1). A typical assay mixture contained 0.4 mM L-kynurenine in 0.04M potassium phosphate, pH 7.8, containing 40 μM pyridoxal-5'-phosphate, at 25° C. The reactions of S-aryl cysteines and S-aryl cysteine sulfones with kynureninase were performed using a spectrophotometric coupled assay with lactate dehydrogenase and NADH, by monitoring a decrease in absorbance due to pyruvate formation. A typical assay mixture contained 30 μl lactate dehydrogenase solution (2 mg/ml), 0.1 mM NADH, 40 μM pyridoxal-5'-phosphate, 0.04M tris.HCl buffer, pH 7.8, with varying concentrations of the compounds. The competitive inhibition of these compounds was measured by variation of L-kynurenine concentrations at several fixed values of the inhibitor. Km and Vmax values were calculated by fitting of initial rate data to the Michaelis-Menten equation with ENZFITTER (Elsevier) on a Z-286 personal computer. KI values were determined from the equation:
v=Vmax[S]/ (Km (1+[I]/Ki)+[S]

The next assay concerns the target T2, rat liver kynureninase (Rattus norvegicus, UniProt P70712).
T2 construct: host or cells: rat liver
T2 sequence (P70712 1-464): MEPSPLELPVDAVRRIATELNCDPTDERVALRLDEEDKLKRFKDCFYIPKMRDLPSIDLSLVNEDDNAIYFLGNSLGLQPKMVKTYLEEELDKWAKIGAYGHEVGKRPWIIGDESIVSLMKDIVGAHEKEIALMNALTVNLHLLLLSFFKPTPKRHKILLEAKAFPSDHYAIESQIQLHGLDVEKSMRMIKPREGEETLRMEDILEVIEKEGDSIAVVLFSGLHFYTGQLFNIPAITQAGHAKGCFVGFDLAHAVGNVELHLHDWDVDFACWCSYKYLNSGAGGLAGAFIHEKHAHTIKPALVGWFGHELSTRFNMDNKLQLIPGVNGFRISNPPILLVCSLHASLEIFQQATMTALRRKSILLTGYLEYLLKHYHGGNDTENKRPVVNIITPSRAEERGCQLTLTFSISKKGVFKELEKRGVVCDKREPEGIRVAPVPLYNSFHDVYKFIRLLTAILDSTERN
The note with it: Wiss and Fuchs (1950); cited from earlier work.

In assay [1] the test system is bacterial kynureninase. The following applies: Hayaishi (1955); cited from earlier work.
Assay [2] relates to kynureninase of P. fluorescens. The note with it: cited from earlier work.
The subject of assay [3] is bacterial kynureninase. The note with it: Kishore (1984); cited from earlier work.
Assay [4] concerns bacterial kynureninase. The note with it: Tanizawa and Soda (1979); cited from earlier work.
[5] abbreviates: competitive inhibition vs L-kynurenine, pH 7.8, 25° C., footnote 1: 0.07 is an upper limit, read-out: Ki.

Read-outs that look alike come from different tables or passages of the source.

We go through 37 molecules from US5516936A, “Inhibitors of kynureninase” (University of Georgia Research Foundation, Inc., priority 1993, dated 1996).

Take `N[C@@H](CS(=O)(=O)c1ccccc1[N+](=O)[O-])C(=O)O`: the Ki on Kynureninase (setting [5]) came to 23 µM.

Turning to `N[C@@H](CS(=O)(=O)c1ccc([N+](=O)[O-])cc1)C(=O)O`, the Ki at Kynureninase (setting [5]) was found to be 12 µM.

`Nc1ccc(SC[C@H](N)C(=O)O)cc1`: the Ki on Kynureninase (setting [5]) came to 140 µM.

For `Nc1ccc(S(=O)(=O)C[C@H](N)C(=O)O)cc1`, the Ki on Kynureninase (setting [5]) worked out at 8.5 µM.

Regarding `CC(=O)CC(N)C(=O)O` (centres unmarked) [2-aminolevulinic acid], the “reaction with rat liver kynureninase to produce alanine (in words)” value (shortened to “reaction with rat liver kynureninase”) on rat liver kynureninase is “reacted with rat liver kynureninase”.

For the molecule `Nc1c(O)cccc1C(=O)C[C@H](N)C(=O)O` [3-hydroxy-L-kynurenine, α,2-diamino-3-hydroxy-γ-oxobenzenebutanoic acid], the “substrate of bacterial kynureninase (in words)” value in the assay on bacterial kynureninase [1] is reported as “substrates”. Also, in assay [2] (Tanizawa and Soda (1979)), the Km was 200 µM and the “substrate of kynureninase (in words)” value is “substrates”. For the same molecule, at rat liver kynureninase, the “reaction with rat liver kynureninase” value is on record as “reacted with rat liver kynureninase”.

Take `COc1cccc(C(=O)C[C@H](N)C(=O)O)c1N` [3-methoxy-L-kynurenine]: the “substrate of bacterial kynureninase (in words)” value in the assay with bacterial kynureninase [1] was “do not react with bacterial kynureninase”.

Turning to `Nc1cc(F)ccc1C(=O)C[C@H](N)C(=O)O` [4-fluoro-L-kynurenine], in assay [2] (Tanizawa and Soda (1979)), the “substrate of kynureninase (in words)” value is reported as “substrates”.

Regarding `Nc1ccc(F)cc1C(=O)C[C@H](N)C(=O)O` [5-fluoro-L-kynurenine], the “substrate of kynureninase (in words)” value in assay [2] (Tanizawa and Soda (1979)) is recorded as “substrates”.

On to `Nc1ccc(O)cc1C(=O)C[C@H](N)C(=O)O` [5-hydroxy-L-kynurenine], for which the “substrate of bacterial kynureninase (in words)” value in the assay with bacterial kynureninase [1] is recorded as “substrates”. Further, in assay [2] (Tanizawa and Soda (1979)), the “substrate of kynureninase (in words)” value is recorded as “substrates”.

On to `Cc1ccc(N)c(C(=O)C[C@H](N)C(=O)O)c1` [5-methyl-L-kynurenine], for which the “substrate of kynureninase (in words)” value in assay [2] (Tanizawa and Soda (1979)) is “substrates”.

Consider `Nc1ccccc1C(=O)C[C@@H](N)C(=O)O` [D-kynurenine], for which the “substrate of kynureninase (in words)” value in assay [2] (Tanizawa and Soda (1979)) was “not substrates”.

With `NC(=O)C[C@H](N)C(=O)O` [L-asparagine], the “substrate of kynureninase (in words)” value in assay [2] (Tanizawa and Soda (1979)) was “not substrates”.

Regarding `Nc1ccccc1C(=O)C[C@H](N)C(=O)O` [L-kynurenine, α,2-diamino-γ-oxobenzenebutanoic acid], the Km in assay [2] (Tanizawa and Soda (1979)) is 35 µM. For the same molecule, the “reaction with rat liver kynureninase” value on rat liver kynureninase is listed as “reacted with rat liver kynureninase”.

As for `N[C@@H](COS(=O)(=O)O)C(=O)O` [L-serine O-sulfate], in the assay on bacterial kynureninase [3], the “inactivation of kynureninase (in words)” value was “inactivated kynureninase”; the “reaction with kynureninase (in words)” value is “react with kynureninase to give pyruvate and ammonia”.

Consider `N[C@@H](CC(=O)c1ccccc1NC=O)C(=O)O` [N'-formyl-L-kynurenine], for which the “substrate of bacterial kynureninase (in words)” value in the assay with bacterial kynureninase [1] is listed as “not a substrate”. Further, in assay [2] (Tanizawa and Soda (1979)), the “substrate of kynureninase (in words)” value is on record as “substrates”. Further, the Michaelis constant (Km) in assay [2] (bacterial kynureninase) was 2200 µM.

For the molecule `Nc1ccccc1S(=O)(=O)C[C@H](N)C(=O)O` [S-(2-aminophenyl)-L-cysteine sulfone], the figures for the Ki on Kynureninase (setting [5]) and at Kynureninase (read-out: Ki) were not above 0.07 µM and approximately 0.07 µM, respectively. Further, the “inhibition (in words)” value on Kynureninase is recorded as “considerably more potent inhibitor of kynureninase”.

With `Nc1ccccc1SC[C@H](N)C(=O)O` [S-(2-aminophenyl)-L-cysteine], the figures for the Ki on Kynureninase (setting [5]) and at Kynureninase (read-out: Ki value) were 2.5 µM and 2.2 µM, respectively. In addition, the “fold decrease in Ki value” at Kynureninase is given as 318 fold.

On to `N[C@@H](CSC(=O)c1ccccc1)C(=O)O` [S-benzoyl-L-cystsine], for which the “substrate of kynureninase (in words)” value in assay [2] (Tanizawa and Soda (1979)) was “not substrates”.

With `N[C@@H](CS(=O)(=O)c1ccccc1)C(=O)O` [S-phenyl-L-cysteine sulfone], the Ki on Kynureninase (setting [5]) and at Kynureninase (read-out: Ki value) was 3.9 µM throughout. In addition, the “fold decrease in Ki value” on Kynureninase was determined as 180 fold.

Turning to `N[C@@H](CSc1ccccc1)C(=O)O` [S-phenyl-L-cysteine], the Ki at Kynureninase (setting [5]) and at Kynureninase (read-out: Ki value) was 700 µM each time. Moreover, at Kynureninase, the “inhibition (in words)” value is “very weak inhibitor”.

On to `O=Cc1ccccc1` [benzaldehyde], for which the “inhibition of bacterial kynureninase (in words)” value in the assay with bacterial kynureninase [4] is recorded as “inhibitors”.

As to `Nc1ccccc1C(O)C[C@H](N)C(=O)O` (stereo partly drawn) [dihydrokynurenine, α,2-diamino-γ-hydroxybenzenebutanoic acid], in assay [2] (Tanizawa and Soda (1979)), the Michaelis constant (Km) was 67 µM, the “Vmax / reactivity relative to L-kynurenine” value is “about 65%” and the “substrate of kynureninase (in words)” value is “substrate”.

As to `CC(=O)OC[C@H](N)C(=O)O` [o-acetyl-L-serine], in the assay on bacterial kynureninase [3], the “inactivation of kynureninase (in words)” value is “inactivated kynureninase”; the “reaction with kynureninase (in words)” value is “react with kynureninase to give pyruvate and ammonia”.

For `CC(=O)c1ccccc1N` [o-aminoacetophenone], the “inhibition of bacterial kynureninase (in words)” value with bacterial kynureninase [4] is “inhibitors”.

`CC(O)CC(N)C(=O)O` (stereo not drawn) [α-amino-γ-hydroxypentanoic acid]: at rat liver kynureninase, the “reaction with rat liver kynureninase” value was “reacted with rat liver kynureninase”.

With `N[C@@H](CC(=O)c1cccc(O)c1)C(=O)O` [β-(m-hydroxybenzoyl)-L-alanine], the “substrate of bacterial kynureninase (in words)” value in the assay on bacterial kynureninase [1] is reported as “do not react with bacterial kynureninase”.

On to `Nc1ccccc1C(=O)CCC(=O)O` [β-(o-aminobenzoyl)propanoic acid], for which the “substrate of bacterial kynureninase (in words)” value with bacterial kynureninase [1] is given as “do not react with bacterial kynureninase”.

For the molecule `N[C@@H](CC(=O)c1ccccc1O)C(=O)O` [β-(o-hydroxybenzoyl)-L-alanine], the “substrate of bacterial kynureninase (in words)” value in the assay with bacterial kynureninase [1] is recorded as “substrates”.

`N[C@@H](CC(=O)c1ccccc1[N+](=O)[O-])C(=O)O` [β-(o-nitrobenzoyl)-L-alanine]: the “substrate of bacterial kynureninase (in words)” value in the assay on bacterial kynureninase [1] is listed as “do not react with bacterial kynureninase”. Further, the “reaction with rat liver kynureninase” value on rat liver kynureninase is “did not”.

With `Nc1ccc(C(=O)C[C@H](N)C(=O)O)cc1` [β-(p-aminobenzoyl)-L-alanine], the “substrate of bacterial kynureninase (in words)” value in the assay on bacterial kynureninase [1] was “do not react with bacterial kynureninase”.

Take `N[C@@H](CC(=O)c1ccccc1)C(=O)O` [β-benzoyl-L-alanine]: the “substrate of bacterial kynureninase (in words)” value in the assay with bacterial kynureninase [1] is “substrates”. Also, the “substrate of kynureninase (in words)” value in assay [2] (Tanizawa and Soda (1979)) was “substrates”. For the same molecule, in assay [2] (bacterial kynureninase), the Km is 160 µM. The “reaction with rat liver kynureninase” value on rat liver kynureninase was “reacted with rat liver kynureninase”.

With `O=C(O)CCC(=O)c1ccccc1` [β-benzoylpropanoic acid], the “substrate of bacterial kynureninase (in words)” value in the assay with bacterial kynureninase [1] was “do not react with bacterial kynureninase”.

For `N[C@@H](CCl)C(=O)O` [β-chloro-L-alanine], in the assay with bacterial kynureninase [3], the “inactivation of kynureninase (in words)” value is “inactivated kynureninase”; the “reaction with kynureninase (in words)” value is “react with kynureninase to give pyruvate and ammonia”.

Take `N#CC[C@H](N)C(=O)O` [β-cyano-L-alanine]: in the assay on bacterial kynureninase [3], the “inactivation of kynureninase (in words)” value is on record as “inactivated kynureninase”; the “reaction with kynureninase (in words)” value is “react with kynureninase to give pyruvate and ammonia”.

Turning to `CC(O)C[C@H](N)C(=O)O` (stereo partly drawn) [γ-methyl-L-homoserine], on rat liver kynureninase, the “reaction with rat liver kynureninase” value is recorded as “reacted with rat liver kynureninase”.

As for `N[C@@H](CC(O)c1ccccc1)C(=O)O` (stereo partly drawn) [γ-phenyl-L-homoserine], the “reaction with rat liver kynureninase” value on rat liver kynureninase is given as “reacted with rat liver kynureninase”.
